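Tested at 5 concentrations; 48 h exposure; 96-well plates; endpoints linearly interpolated, else capped at highest concentration. TGI marks complete inhibition of growth.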
Experiments:
Experiment in all cases: DTP human tumour cell line panel, 48 h
[1] = system: 786-0 renal
[2] = system: A498 renal
[3] = system: CAKI-1 renal
[4] = system: CCRF-CEM leukemia
[5] = system: COLO 205 colon
[6] = system: DLD-1 colon
[7] = system: DMS 114 small cell lung
[8] = system: DMS 273 small cell lung
[9] = system: HCC-2998 colon
[10] = system: HCT-116 colon
[11] = system: HL-60(TB) leukemia
[12] = system: HOP-62 NSCLC
[13] = system: HOP-92 NSCLC
[14] = system: IGROV1 ovarian
[15] = system: K-562 leukemia
[16] = system: LXFL 529 NSCLC
[17] = system: M14 melanoma
[18] = system: M19-MEL melanoma
[19] = system: MALME-3M melanoma
[20] = system: MOLT-4 leukemia
[21] = system: NCI-H226 lung
[22] = system: NCI-H23 lung
[23] = system: NCI-H460 lung
[24] = system: NCI-H522 lung
[25] = system: OVCAR-4 ovarian
[26] = system: RPMI-8226 leukemia
[27] = system: SF-268 CNS
[28] = system: SF-539 CNS
[29] = system: SK-MEL-2 melanoma
[30] = system: SK-MEL-28 melanoma
[31] = system: SK-OV-3 ovarian
[32] = system: SN12C renal
[33] = system: SNB-75 CNS
[34] = system: SNB-78 CNS
[35] = system: SR leukemia
[36] = system: UACC-62 melanoma
[37] = system: UO-31 renal
[38] = system: XF 498 CNS
[39] = system: A549 NSCLC
[40] = system: EKVX NSCLC
[41] = system: HCT-15 colon
[42] = system: HT29 colon
[43] = system: KM12 colon
[44] = system: KM20L2 colon
[45] = system: LOX IMVI melanoma
[46] = system: OVCAR-3 ovarian
[47] = system: OVCAR-5 ovarian
[48] = system: OVCAR-8 ovarian
[49] = system: RXF 393 renal
[50] = system: RXF-631 renal
[51] = system: SF-295 CNS
[52] = system: SK-MEL-5 melanoma
[53] = system: SNB-19 CNS
[54] = system: SW-620 colon
[55] = system: TK-10 renal
[56] = system: U251 CNS
[57] = system: UACC-257 melanoma

In the case of Cc1[nH]c(=O)nc(N/N=C/c2ccc(O)cc2)c1C(=O)Nc1ccc(O)cc1, the TGI [1] is reported as greater than 100 µM, the TGI [2] is reported as greater than 100 µM and the TGI [3] is reported as greater than 100 µM. The TGI [4] was greater than 100 µM, the TGI [5] was greater than 100 µM and the TGI [6] was greater than 100 µM. For the same compound, the TGI [7] was greater than 100 µM, the TGI [8] was greater than 100 µM and the TGI [9] was greater than 100 µM. It also gave a TGI [10] greater than 100 µM, a TGI [11] greater than 100 µM and a TGI [12] greater than 100 µM. The TGI [13] was greater than 100 µM, the TGI [14] was greater than 100 µM and the TGI [15] was greater than 100 µM. The TGI [16] was greater than 100 µM, the TGI [17] was greater than 100 µM and the TGI [18] was greater than 100 µM. For the same compound, the TGI [19] was greater than 100 µM, the TGI [20] was greater than 100 µM and the TGI [21] was greater than 100 µM. For the same compound, the TGI [22] was greater than 100 µM, the TGI [23] was greater than 100 µM and the TGI [24] was greater than 100 µM. It also gave a TGI [25] greater than 100 µM, a TGI [26] greater than 100 µM and a TGI [27] greater than 100 µM. The TGI [28] was greater than 100 µM, the TGI [29] was greater than 100 µM and the TGI [30] was greater than 100 µM. The TGI [31] was greater than 100 µM, the TGI [32] was greater than 100 µM and the TGI [33] was greater than 100 µM. The TGI [34] was greater than 100 µM, the TGI [35] was greater than 100 µM and the TGI [36] was greater than 100 µM. It also gave a TGI [37] greater than 100 µM and a TGI [38] greater than 100 µM.

Compound CCC12CCCN(Cc3ccccc3)C1c1c(n(C)c3ccccc13)C(CO)C2 (centres undefined) has a TGI [1] of 79.5 µM, a TGI [39] greater than 257 µM and a TGI [3] greater than 257 µM. For the same compound, the TGI [4] was greater than 257 µM, the TGI [5] was 75.2 µM and the TGI [6] was greater than 257 µM. For the same compound, the TGI [7] was 84.5 µM, the TGI [8] was 89.7 µM and the TGI [40] was 245 µM. For the same compound, the TGI [9] was 121 µM, the TGI [10] was 53.6 µM and the TGI [41] was 78.1 µM. It also gave a TGI [11] of 169 µM, a TGI [12] of 73.6 µM and a TGI [13] of 110 µM. For the same compound, the TGI [42] was 72.2 µM, the TGI [14] was 218 µM and the TGI [15] was 107 µM. For the same compound, the TGI [43] was 89.4 µM, the TGI [44] was 78.1 µM and the TGI [45] was 82 µM. For the same compound, the TGI [16] was 87.4 µM, the TGI [18] was 125 µM and the TGI [19] was 84.6 µM. It also gave a TGI [20] of 149 µM, a TGI [21] of 104 µM and a TGI [22] of 158 µM. The TGI [23] was 73.8 µM, the TGI [24] was 66.7 µM and the TGI [46] was 90.7 µM. For the same compound, the TGI [47] was 75.6 µM, the TGI [48] was 186 µM and the TGI [26] was 108 µM. The TGI [49] was greater than 257 µM, the TGI [50] was 142 µM and the TGI [27] was greater than 257 µM. For the same compound, the TGI [51] was 64.7 µM, the TGI [28] was 73.9 µM and the TGI [29] was 107 µM. For the same compound, the TGI [30] was 150 µM, the TGI [52] was 76.9 µM and the TGI [31] was 194 µM. It also gave a TGI [32] of 81.2 µM, a TGI [53] of 186 µM and a TGI [35] of 105 µM. The TGI [54] was 89.2 µM, the TGI [55] was 246 µM and the TGI [56] was 134 µM. It also gave a TGI [57] of 95.1 µM, a TGI [36] of 115 µM and a TGI [38] of 79.7 µM.
